Data: patent US20190352276A1, “INHIBITORS OF BRUTON'S TYROSINE KINASE” (Joint Stock Company "Biocad", priority 2016, published 2019)

Tests used:
[1] = Stability in human blood plasma; details: 10 μM in pooled human blood plasma, incubated 4 hours at 37° C.
[2] = test system: Mino (mantle cell lymphoma); assay: Antiproliferative activity, Mino cells (Alamar Blue); assay type: cell-based; details: Homo sapiens, Table 10, 72 h, average of several tests
Protocol: (§1) Antiproliferative activity of BTK inhibitors was measured in cell-based bioassay on B-cells cultures: Mino (mantle cell lymphoma, ATCC® CRL-3000™), Z-138 (mantle cell lymphoma, ATCC® CRL-3001™) and DOHH2 (follicular lymphoma, Creative Bioarray CSC-C0219) using cell viability reagent Alamar Blue (Invitrogen, #DAL 1100). Cells were cultured in 10% FB S-supplemented (HyClone, #SH3008803/Gibco, #16140-071) RPMI-1640 (PanEco, #S330p) for at least 1 passage after thawing, washed with PBS and passaged in 96-well culture plates (Corning, #3599) with growth medium with 10% FBS (HyClone, #SH3008803/Gibco, #16140-071) and antibiotic (50 μg/ml of gentamicin (Biolot, #1.3.16))≈3*10^4 cells in 50 μl of medium per well.
(§2) The compounds were dissolved in DMSO and diluted with the assay medium to final concentrations ranging from […]. 150 μl of each diluted compound were then added to each well (final concentration of DMSO was less than 1%) and incubated at 37° C. in an incubator under 5% of CO2 for 72 h. After incubation, 20 μl of Alamar Blue reagent (Invitrogen, #DAL1100) were added to each well. The plates were shaked on an orbital shaker (Biosan, Latvia) and then incubated for 14-16 hours at 37° C. in the incubator.
(§3) The number of living cells were estimated, measuring the fluorescence signal at the excitation wavelength (REx) of 540 nm and the emission wavelength (λEm) of 590 nm on a microplate reader (Tecan Infinite M200Pro, Switzerland).
(§4) For each compound, IC50 was calculated using Magellan 7.2 software (Tecan, Switzerland) approximating experimental points by four-parameter logistic model with the optimization by Levenberg-Marquardt.

[3] = Chemical stability in artificial gastric fluid (SGF without enzymes); details: 10 μM in SGF without enzymes, pH=1.4, 37° C.
[4] = test system: Z-138 (mantle cell lymphoma); assay: Antiproliferative activity, Z-138 cells (Alamar Blue); assay type: cell-based; details: Homo sapiens, Table 10, 72 h, average of several tests
Protocol: as §1, §2, §3, §4

[5] = test system: HepG2 cells (hepatocellular carcinoma); assay: General cytotoxicity on HepG2 cells (CC50; therapeutic index CC50 HepG2/IC50 Mino); assay type: cell-based; details: Table 10; therapeutic index
Protocol: (§5) The CC50 values were determined in the test for General cytotoxicity on HepG2 cells (hepatocellular carcinoma, ATCC® HB-8065™). 2*10^4 cells (in 50 μl) per well were seeded in 96-well plates (Corning, #3599) in DMEM medium (PanEco, #S420p), after 24 h of incubation 150 μl of candidate compounds were added to each well in the range of final concentrations from 200 μM to 4 μM and the plate was incubated in a total volume of 200 μl for 72 hours. Viability of the cells was assessed using Alamar Blue dye (Invitrogen, #DAL 1100). CC50 was determined similarly (table 10).
(§6) The relationship between toxic (CC50) and a therapeutic (IC50) effects of the dose is the therapeutic index, which can be expressed as the ratio between CC50 (HepG2) (general cytotoxicity of the candidate) and IC50 (Mino) (antiproliferative activity on the target cells): […]

[6] = as above; assay type: cell-based; details: human, HepG2 cells (hepatocellular carcinoma); Table 10; 72 hours, Alamar Blue; average of several tests
Protocol: as §5, §6

Row | Amount of substance in the sample, % (stability in human blood plasma) [1] [%] | IC50 [2] [µM] | Amount of substance in the sample in % (chemical stability) [3] [%] | IC50 [4] [µM] | Compound | CC50 (HepG2)/IC50 (Mino) [5] | CC50 at 72 h [6] [µM]
1 | 97.8 | – | – | – | C=CC(=O)N1CCC[C@@H](n2nc(-c3ccc(Oc4ccncc4)cc3)c3cncc(Cl)c32)C1 [BCD-BTK -125, (R)-1-(1-acryloylpiperidin-3-yl)-7-chloro-3-(4-(pyridin-4-yloxy)phenyl)-1H-pyrazolo[4,3-c]pyridine] | – | –
2 | 89.7 | – | – | – | C=CC(=O)N1CCC[C@@H](n2nc(-c3ccc(Oc4ccncc4)cc3)c3c(N)ncc(C#N)c32)C1 [BCD-BTK -134, (R)-1-(1-acryloylpiperidin-3-yl)-4-amino-3-(4-(pyridin-4-yloxy)phenyl)-1H-pyrazolo[4,3-c]pyridin-7-carbonitrile] | – | –
3 | – | 10.1 | 96.7 | ~50 | C=CC(=O)N1CCC[C@@H](n2nc(-c3ccc(C(=O)Nc4cc(C(F)(F)CC)ccn4)cc3)c3cncc(C#N)c32)C1 [BCD-BTK-219, 4-{7-cyano-1-[1-(prop-2-enoyl)piperidin-3-yl]-1H-pyrazolo[4,3-c]pyridin-3-yl}-N-[4-(1,1-difluoropropyl)pyridin-2-yl] benzamide] | >9.95 | > 100
4 | – | 11 | 100 | > 50 | C=CC(=O)N1CCC[C@@H](n2nc(-c3ccc(C(=O)Nc4cc(C(C)(F)F)ccn4)cc3)c3cncc(C#N)c32)C1 [BCD-BTK-224, 4-{7-cyano-1-[(3R)-1-(prop-2-enoyl)piperidin-3-yl]-1H-pyrazolo[4,3-c]pyridin-3-yl}-N-[4-(1,1-difluoroethyl)pyridin-2-yl]benzamide] | 6.63 | 73.1
5 | – | 32.4 | 100 | 23.7 | C=CC(=O)N1CCC[C@@H](n2nc(-c3ccc(Oc4ccncc4C(N)=O)cc3)c3cncc(F)c32)C1 [BCD-BTK-246, (R)-4-(4-(1-(1-acryloylpiperidin-3-yl)-7-fluoro-1H-pyrazolo[4,3-c]pyridin-3-yl)phenoxy)nicotinamide] | >3.09 | > 100
6 | – | 4.92 | 97.8 | 14.3 | C=CC(=O)N1CC(Cn2nc(-c3ccc(Oc4ccncc4)cc3)c3cncc(Cl)c32)C1 [BCD-BTK-264, 1-(3-((7-chloro-3-(4-(pyridin-4-yloxy)phenyl)-1H-pyrazolo[4,3-c]pyridin-1-yl)methyl)azetidin-1-yl)prop-2-en-1-one] | 2.13 | 10.5
7 | – | 6.79 | 99.1 | 14.3 | CC#CC(=O)N1CC[C@H](n2nc(-c3ccc(Oc4ccncc4)cc3)c3cncc(Cl)c32)C1 [BCD-BTK-270, (S)-1-(3-(7-chloro-3-(4-(pyridin-4-yloxy)phenyl)-1H-pyrazolo[4,3-c]pyridin-1-yl)pyrrolidin-1-yl)but-2-yn-1-one] | 3.45 | 23.4
8 | – | 27.9 | 100 | 115 | C=CC(=O)N1CC[C@@H](Cn2nc(-c3ccc(C(=O)Nc4ccccn4)cc3)c3cncc(Cl)c32)C1 [BCD-BTK-284, (R)-4-(1-((1-acryloylpyrrolidin-3-yl)methyl)-7-chloro-1H-pyrazolo[4,3-c]pyridin-3-yl)-N-(pyridin-2-yl)benzamide] | >3.59 | > 100
9 | – | 10.1 | 100 | > 34.6 | C=CC(=O)N1CC[C@H](Cn2nc(-c3ccc(C(=O)Nc4ccccn4)cc3)c3cncc(Cl)c32)C1 [BCD-BTK-285, (S)-4-(1-((1-acryloylpyrrolidin-3-yl)methyl)-7-chloro-1H-pyrazolo[4,3-c]pyridin-3-yl)-N-(pyridin-2-yl)benzamide] | >9.91 | > 100
